The results in this text go back to patent US20210147814A1, “METHODS FOR GENERATING PLURIPOTENT STEM CELLS” (Memorial Sloan Kettering Cancer Center, priority 2017, published 2021).

Where two headings read alike, the source gives them in different places.

The subject of assay [1] is G-quadruplex (G4) DNA structure. The assay is described as follows: G4 DNA structure formation (G4 IHC staining, G4-antibody ChIP-seq) in fibroblasts. The class given is cell-based, human. The note with it: for G4 level / G4 DNA structure formation: 4 hours; for G4 DNA structure formation: cells with high ROS levels. As to the method:
G4 and 8-oxoguanosine Immunostaining. Cells were fixed in 3.7% formaldehyde for 20 minutes at room temperature and washed with phosphate buffered saline (PBS). Samples were then permeabilized with 0.1 Triton X-100 in PBS for 20 minutes and blocked for 1 hour with 3% bovine serum albumin (BSA) in PBS-T, followed by incubation with primary antibodies for 2 hours at room temperature or overnight at 4° C. Anti-DNA G-quadruplex (G4) Antibody, clone 1H6 (MABE1126, EMD Millipore, Burlington, Mass.) was used for the detection of DNA G-quadruplex and ANTI-8 HYDROXYGUANOSINE AB (N45.1) AB48508 from Abcam (Cambridge, United Kingdom). Primary antibodies were used at a 1:250 dilution and 1:50 respectively. Alexa 568-conjugated goat anti-mouse IgM (A-21124) was from Molecular Probes (Eugene, Oreg.). Secondary antibodies were used at a 1:1000 dilution. The nuclei were stained with 4′,6-diamidino-2-phenylindole (DAPI, Sigma, St. Louis, Mo.). Image quantification was performed with Image J (NIH, Bethesda, Md.), quantifying mean fluorescence intensity in the nuclear regions.
GSH and BSO Treatment, Time-Course Experiment. High ROS fibroblasts were treated by adding glutathione reduced ethyl ester (3 mM, GEE; Gold Biotechnology Inc., St. Louis, Mo.) to the media. Treated High ROS fibroblasts were then fixed and processed for staining at multiple timepoints. Low ROS fibroblasts were treated with L-Buthionine-sulfoximine (500 μM, BSO; Sigma, St. Louis, Mo.) to the media. Treated Low ROS fibroblasts were then fixed and processed for staining at multiple timepoints.
CHIP-SEQ for G4 Structures. Chromatin immunoprecipitation (ChIP) was performed according to the published protocol (see Carey, M. F., et al., Chromatin Immunoprecipitation (ChIP), COLD SPRING HARB PROTOC (CSH Press) (2009)). Anti-DNA G-quadruplex (G4) Antibody, clone 1H6 (MABE1126, EMD Millipore, Burlington, Mass.) was used for the detection of DNA G-quadruplex.

The subject of assay [2] is mouse A-iPSC. Description: DNA damage response in mouse A-iPSC treated with GSS inhibitor. Type of assay: cell-based. The note with it: treatment of mouse A-iPSC; data not shown. From the text: A-iPSC have excessive levels of glutathione (FIG. 3D) and elevated ROS scavenging activity (FIG. 3E) relative to Y-iPSC or ESC. While ROS levels in A-iPSC were increased by treatment with DNA damaging agents (FIG. 3E) and this might be sufficient to cause direct DNA damage and genomic instability, improper scavenging of ROS by excess glutathione would limit the ROS cellular stress signal needed to induce the DNA damage response, which would in turn reduce apoptosis and increase A-iPSC exposure to additional genotoxic stress, allowing accumulation of mutations and other genomic alterations. Upon ZSCAN10 expression, glutathione and ROS scavenging activity were normalized to levels equivalent to those seen in Y-iPSC and ESC (FIG. 3D, 3E). In addition, shRNA knockdown of GSS in reprogrammed A-iPSC (data not shown) decreased glutathione levels and ROS scavenging activity (data not shown), increased apoptosis (FIG. 3F), and recovered the DNA damage response (FIG. 3G). The DNA damage response was also recovered by treatment of A-iPSC with the GSS pharmacological inhibitor, L-Buthionine-sulfoximine (BSO) (data not shown). Conversely, overexpression of GSS in Y-iPSC (data not shown) increased glutathione and ROS scavenging activity (data not shown), decreased apoptosis (FIG. 3F), and blunted the DNA damage response (FIG. 311).

Assay [3] deals with pATM. Description: Immunoblot of pATM after phleomycin treatment in BSO-A-iPSC. Type of assay: cell-based. The note with it: 0.5 mM from end of reprogramming day 5, ten independent clones of A-iPSC. How it is done:
Immunoblot analysis. […] Secondary antibodies were from Cell Signaling (1:10,000).
BSO treatment. BSO-A-iPSC were generated in the presence of 500 μM of L-Buthionine-sulfoximine (BSO, Sigma, B2515) starting on the end of reprogramming day 5. The treatment was kept throughout the end of reprogramming process and after picking the colonies.
BSO-A-iPSC were generated in the presence of 500 μM of L-Buthionine-sulfoximine (BSO, Sigma B2515) starting on the end of reprogramming day 5 as previously described (see, e.g., Ji, et al. Experimental & Molecular Medicine 42:175-186 (2010)).
In general terms: A western blot detects proteins with antibodies after separation by electrophoresis.

Assay [4] has as its system somatic cells. The assay is described as follows: Modification of cellular ROS levels in high-ROS / low-ROS somatic cells. Type of assay: cell-based, human. The following applies: 4 hours.
Assay [5] concerns ZSCAN10. The note with it: A-iPSC generated with 3 mM treatment; vs untreated A-iPSC. As to the method: (§1) Quantitative real time-PCT (Q-PCR) analysis. The expression levels of genes (ZSCAN10, GSS) were quantified by Q-PCR with Power SYBR Green PCR mastermix (Applied Biosystems). Total RNAs (1 μg) were reverse-transcribed in a volume of 20 μL using the M-MuLV Reverse Transcriptase system (New England Biolabs), and the resulting cDNA was diluted into a total volume of 200 μL. 10 μL of this synthesized cDNA solution was used for analysis. For pluripotent genes, each reaction was performed in a 25-μL volume using the Power SYBR Green PCR mastermix (Applied Biosystems). The conditions were programmed as follows: initial denaturation at 95° C. for 10 min followed by 40 cycles of 30 sec at 95° C., 1 min at 55° C., and 1 min at 72° C.; then 1 min at 95° C., 30 s at 55° C., and 30 sec at 95° C. All of the samples were duplicated, and the PCR reaction was performed using an Mx3005 reader (Stratagene), which can detect the amount of synthesized signals during each PCR cycle. The relative amounts of the mRNAs were determined using the MxPro program (Strategene). The amount of PCR product was normalized to the percentage of the expression level of β-actin.

Assay [6] relates to GSS. The following applies: A-iPSC generated with 3 mM treatment; vs untreated A-iPSC. As to the method:
as §1

The subject of assay [7] is A-SC from AG4 donor. The note with it: 3 mM for three days in the media.
Text: Reactive oxygen species (ROS) analysis. The production of superoxide by mitochondria can be visualized in fluorescence microscopy using the MitoSOX™ Red reagent (M36008, Thermofisher scientific). MitoSOX™ Red reagent permeates live cells where it selectively targets mitochondria. It is rapidly oxidized by superoxide but not by other reactive oxygen species (ROS) and reactive nitrogen species (RNS). The oxidized product is highly fluorescent upon binding to nucleic acid. Fluorescence microscopy was used to visualize the fluorescence and imaging software (Image J) was used to quantify the staining of the different cell lines.
MitoSOX RED Staining. MitoSOX Red staining (MitoSOX™ Red mitochondrial superoxide indicator *for live-cell Imaging, M36008, ThermoFisher Scientific, Waltham, Mass.) was performed according to Molecular Probes/Thermo Scientific protocol. Briefly, the MitoSOX™ reagent stock solution (5 mM, prepared in HBSS/Ca/Mg or suitable buffer) was diluted to make a 5 μM MitoSOX™ reagent working solution. 1.0-2.0 mL of the 5 μM MitoSOX™ reagent working solution was applied to cover cells adhering to coverslip(s). Cells were incubated for 10 minutes at 37° C., protected from light. Cells were washed before imaging.
The subject of assay [8] is human A-iPSC. How it is done:
(§2) For the generation of human A-iPSC, 10^5 skin fibroblasts such as young somatic cells (Y-SC) from MRCS and aged somatic cells (A-SC) from LS and AG4 donors aged 80 to 100 years were infected with retrovirus generated from the tetracistronic SFG-SV2 vector encoding for hOCT4, hSOX2, hKLF4, and hMYC in 6-well dishes with 0.5 mL of each viral supernatant (total 2 mL per well); and spun at 2500 rpm at RT for 90 min (BenchTop Centrifuge, BeckmanCoulter, Allegra-6R). The cells were contacted with 3 mM glutathione reduced ethyl ester prior to and during the early stage of reprogramming (from one day before reprogramming virus infection to 10 days post reprogramming virus infection).
Copy number profiling analysis. Copy number profiling analysis was performed according to a published protocol (Baslan et al., Genome Research 25:1-11 (2015)).

Assay [9] has as its system human AG4 fibroblasts. The note with it: AG4-GSH vs AG4 control, 100,000 cells each, iPSC colonies counted at day 21. As to the method: as §2
Assay [10] deals with pATM. The following applies: A-hiPSC from AG4 fibroblasts, 3 mM from one day before to 10 days post reprogramming virus infection, phleomycin 2 h, 30 μg/mL, vs untreated A-hiPSC. As to the method:
as §2

`CCCCS(=N)(=O)CCC(N)C(=O)O` [BSO, L-Buthionine-sulfoximine]: the G4 level result in assay [1] (0.5 mM, low-ROS somatic cells) was “increases”. Also, in assay [1] (low ROS fibroblasts, 500 μM, time-course (FIG. 14B)), the “G4 IHC staining of fibroblasts” value is “higher G4 IHC staining”. For the same molecule, the DNA damage response entry in assay [2] is “recovered”. In addition, in [3], the “DNA damage response (pATM immunoblot)” value was “recovery of the DNA damage response”. In addition, in assay [4] (0.5 mM, low-ROS somatic cells), the “cellular ROS level” value is “increases”.
Turning to `N[C@@H](CCC(=O)N[C@@H](CS)C(=O)NCC(=O)O)C(=O)O` [glutathione reduced ethyl ester], the “ZSCAN10 levels in the A-iPSC (Q-PCR)” value in [5] is listed as “elevated”. Further, the “GSS levels in the A-iPSC (Q-PCR)” value in assay [6] was “reduced”. Also, the “cellular ROS level (MitoSOX staining)” value in assay [7] is on record as “reduces the cellular ROS level”. Further, the “G4 DNA structure formation” value is reported as “reduces G4 DNA structure formation” in assay [1] (3 mM) and “decreases” in [1] (3 mM, listed as GEE). The “G4 IHC staining of fibroblasts” value in [1] (high ROS fibroblasts, 3 mM, time-course (FIG. 14A)) is listed as “lower G4 IHC staining”. For the same molecule, in [8] (A-hiPSC from AG4 fibroblasts, 3 mM prior to and during first 10 days of reprogramming, vs untreated A-hiPSC), the “genomic stability (copy number profiling)” value is “maintains genomic stability”. Further, in [8] (human A-iPSC with glutathione treatment, 10 clones, untreated A-hiPSC 7/11), the “detected rearrangements per number of clones (copy number profiling)” value is 0/10. Besides, the “increase of reprogramming efficiency” value in assay [9] is listed as “approximately 10 fold”. Moreover, the “DNA damage response (pATM immunoblot)” value in [10] was “protects the DNA damage response”; in assay [10] (listed as glutathione) it was “impairs the DNA damage response”. The “cellular ROS level” value in assay [4] (3 mM, high-ROS somatic cells) is “decreases”.
`NCCOc1cc(C(=O)Nc2cc(OCCN)c3ccccc3n2)nc(C(=O)Nc2cc(OCCN)c3ccccc3n2)c1` [pyridostatin]: the G4 level result in assay [1] (10 μM, somatic cells) is recorded as “increases G4”.
